The results in this text go back to patent US8354419B2, “Benzimidazole analogues for the treatment or prevention of flavivirus infections” (Vertex Pharmaceuticals Incorporated, priority 2009, dated 2013).

Some results are limits rather than exact numbers.

The test system of this assay is HCV (Ib) RNA replication. The assay can be described thus: Cell-based luciferase reporter HCV (1b) RNA replication assay (replicon cell lines Huh-7 5.2 and ET). The arrangement: species or system Hepatitis C virus. The conditions noted are these: Hepatitis C virus, Huh-7, 96 h, HCV 1b genotype replicon, luciferase readout, 4 days incubation; read-out: EC50_1b. The procedure, abridged:
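Compounds were tested at eleven concentrations in duplicate over 4 days at 37 °C, 5% CO2. The cells were luciferase-reporter HCV 1b replicon lines 5.2 (NS5A adaptive mutation) or ET (NS4B mutation). Luminescence of lysates was measured, and IC50s were derived by nonlinear curve fitting.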
On the technique in general: Reporter assays use an easily measured gene product as a stand-in for the process of interest.
Regarding `COC(=O)N[C@@H](C)C(=O)N1CCC[C@H]1c1nc2cc(C#Cc3ccc4[nH]c([C@@H]5CCCN5C(=O)[C@H](C)NC(=O)OC)nc4c3)ccc2[nH]1` [Compound 50], the EC50 was at most 5 nM.

With `O=C(NC1CC1)c1nc2cc(C#Cc3ccc4[nH]c([C@@H]5CCCN5C(=O)OCc5ccccc5)nc4c3)ccc2[nH]1` [Compound 51], the EC50 lay in the range of 5 to 5000 nM.

In the case of `COC(=O)N[C@@H](C)C(=O)N1CCC[C@H]1c1nc2cc(C#Cc3ccc4[nH]c([C@@H]5CCCCN5C(=O)OCc5ccccc5)nc4c3)ccc2[nH]1` [Compound 52], the EC50 was at most 5 nM.

For `COC(=O)N[C@@H](C)C(=O)N1CCC[C@H]1c1nc2cc(C#Cc3ccc4[nH]c([C@@H]5CCCN5C(=O)[C@@H](NC(=O)OC)C(C)C)nc4c3)ccc2[nH]1` [Compound 53], the EC50 is at most 5 nM.

For `COC(=O)N[C@@H](C)C(=O)N1CCC[C@H]1c1nc2cc(C#Cc3ccc4[nH]c([C@@H]5CCCN5C(=O)[C@@H](NC(=O)OC)C(C)(C)C)nc4c3)ccc2[nH]1` [Compound 54], the EC50 is at most 5 nM.

For the compound `COC(=O)N[C@@H](C)C(=O)N1CCC[C@H]1c1nc2cc(C#Cc3ccc4[nH]c([C@@H]5CCCN5C(=O)[C@H](NC(=O)OC)c5ccccc5)nc4c3)ccc2[nH]1` [Compound 55], the EC50 is at most 5 nM.

On to `COC(=O)N[C@@H](C)C(=O)N1CCC[C@H]1c1nc2cc(C#Cc3ccc4[nH]c([C@@H]5CCCN5C(=O)[C@H]5CCCO5)nc4c3)ccc2[nH]1` [Compound 56], for which the EC50 is at most 5 nM.

For `COC(=O)N[C@@H](C)C(=O)N1CCC[C@H]1c1nc2cc(C#Cc3ccc4[nH]c([C@@H]5CCCN5)nc4c3)ccc2[nH]1` [Compound 57], the EC50 was in the range of 5 to 5000 nM.

For `COC(=O)N[C@H](C(=O)N1CCCC[C@H]1c1nc2cc(C#Cc3ccc4[nH]c([C@@H]5CCCCN5C(=O)[C@@H](NC(=O)OC)C(C)C)nc4c3)ccc2[nH]1)C(C)C` [Compound 58], the EC50 is at most 5 nM.

As for `COC(=O)N[C@@H](C)C(=O)N1CCC[C@H]1c1nc2cc(C#Cc3ccc4c(c3)N=C([C@@H]3CCCN3C(=O)C(c3ccccc3)N(C)C)C4)ccc2[nH]1` (stereo partly drawn) [Compound 59], the EC50 was at most 5 nM.

For the compound `COC(=O)N[C@H](C(=O)N1CCCC[C@H]1c1nc2cc(C#Cc3ccc4[nH]c([C@@H]5CCCN5C(=O)[C@@H](NC(=O)OC)C(C)C)nc4c3)ccc2[nH]1)C(C)C` [Compound 60], the EC50 was at most 5 nM.

Turning to `O=C(N1CCC[C@H]1c1nc2cc(C#Cc3ccc4[nH]c([C@@H]5CCCN5C(=O)C5(c6ccccc6)CC5)nc4c3)ccc2[nH]1)C1(c2ccccc2)CC1` [Compound 61], the EC50 was at most 5 nM.

On to `COC(=O)N[C@H](C(=O)N1CCC[C@H]1c1nc2cc(C#Cc3ccc4[nH]c([C@@H]5CCCN5C(=O)[C@H](NC(=O)OC)C(C)C)nc4c3)ccc2[nH]1)C(C)C` [Compound 62], for which the EC50 was at most 5 nM.

For `COC(=O)N(C)[C@H](C(=O)N1CCC[C@H]1c1nc2cc(C#Cc3ccc4nc([C@@H]5CCCN5C(=O)[C@H](C(C)C)N(C)C(=O)OC)[nH]c4c3)ccc2[nH]1)C(C)C` [Compound 63], the EC50 was at most 5 nM.

Consider `COC(=O)N[C@H](C(=O)N1CCC[C@H]1c1nc2ccc(CCc3ccc4nc([C@@H]5CCCN5C(=O)[C@@H](NC(=O)OC)C(C)C)[nH]c4c3)cc2[nH]1)C(C)C` [Compound 64], for which the EC50 is at most 5 nM.

As for `CC(C)[C@H](NS(C)(=O)=O)C(=O)N1CCC[C@H]1c1nc2cc(C#Cc3ccc4nc([C@@H]5CCCN5C(=O)[C@@H](NS(C)(=O)=O)C(C)C)[nH]c4c3)ccc2[nH]1` [Compound 65], the EC50 lay in the range of 5 to 5000 nM.

Regarding `CN1CCC[C@H]1C(=O)N1CCCC1c1nc2ccc(C#Cc3ccc4[nH]c([C@@H]5CCCN5C(=O)[C@@H]5CCCN5C)nc4c3)cc2[nH]1` (stereo partly drawn) [Compound 66], the EC50 was 5 to 5000 nM.

Consider `O=C1CCC(C(=O)N2CCC[C@H]2c2nc3cc(C#Cc4ccc5nc([C@@H]6CCCN6C(=O)[C@@H]6CCC(=O)N6)[nH]c5c4)ccc3[nH]2)N1` (stereo partly drawn) [Compound 67], for which the EC50 fell in the range of 5 to 5000 nM.

For the compound `COC(=O)NC(C(=O)N1CCC[C@H]1c1nc2ccc(CCCCc3ccc4[nH]c([C@@H]5CCCN5C(=O)[C@@H](NC(=O)OC)C(C)C)nc4c3)cc2[nH]1)C(C)C` (stereo partly drawn) [Compound 68], the EC50 was at most 5 nM.

In the case of `CC(C)(C)OC(=O)N1CCC[C@H]1c1nc2cc(C#CC#Cc3ccc4[nH]c([C@@H]5CCCN5C(=O)OC(C)(C)C)nc4c3)ccc2[nH]1` [Compound 69], the EC50 was in the range of 5 to 5000 nM.

Turning to `CC(C)[C@H](NC(=O)NC1CCCC1)C(=O)N1CCCC1c1nc2cc(C#Cc3ccc4[nH]c([C@H]5CCCN5C(=O)[C@@H](NC(=O)NC5CCCC5)C(C)C)nc4c3)ccc2[nH]1` (stereo partly drawn) [Compound 70], the EC50 was in the range of 5 to 5000 nM.

For `COC[C@H](NC(=O)OC)C(=O)N1CCC[C@H]1c1nc2cc(C#Cc3ccc4nc([C@@H]5CCCN5C(=O)[C@H](COC)NC(=O)OC)[nH]c4c3)ccc2[nH]1` [Compound 71], the EC50 is at most 5 nM.

`COC(=O)N(C)[C@H](C(=O)N1CCC[C@H]1c1nc2cc(CCc3ccc4nc([C@@H]5CCCN5C(=O)[C@H](C(C)C)N(C)C(=O)OC)[nH]c4c3)ccc2[nH]1)C(C)C` [Compound 72]: the EC50 is at most 5 nM.

Turning to `COC(=O)N[C@@H](C(=O)N1CC[C@H]1c1nc2cc(C#Cc3ccc4[nH]c([C@@H]5CCN5C(=O)[C@H](NC(=O)OC)C(C)C)nc4c3)ccc2[nH]1)C(C)C` [Compound 73], the EC50 was at most 5 nM.

For the compound `COC(=O)N[C@H](C(=O)N1CCC[C@H]1c1nc2cc(C#CC#Cc3ccc4nc([C@@H]5CCCN5C(=O)[C@H](NC(=O)OC)C(C)C)[nH]c4c3)ccc2[nH]1)C(C)C` [Compound 74], the EC50 is at most 5 nM.

For `O=C(N1CCOCC1)N1CCC[C@H]1c1nc2cc(C#Cc3ccc4[nH]c([C@@H]5CCCN5C(=O)N5CCOCC5)nc4c3)ccc2[nH]1` [Compound 75], the EC50 was at most 5 nM.

For `COC(=O)N[C@H](C(=O)N1CCC[C@H]1c1nc2cc(C#Cc3ccc4nc([C@@H]5CCCN5C(=O)[C@@H](O)C(C)C)[nH]c4c3)ccc2[nH]1)C(C)C` [Compound 76], the EC50 was at most 5 nM.

For `COC(=O)N[C@H](C(=O)N1CCC[C@H]1c1nc2cc(C#Cc3ccc4nc([C@@H]5CCCN5C(=O)[C@@H](NC(=O)OC(C)(C)C)C5CCCCC5)[nH]c4c3)ccc2[nH]1)C(C)C` [Compound 77], the EC50 was at most 5 nM.

Regarding `COC(=O)N[C@H](C(=O)N1CCC[C@H]1c1nc2cc(C#Cc3ccc4nc([C@@H]5CCCN5C(=O)[C@H](O)C(C)C)[nH]c4c3)ccc2[nH]1)C(C)C` [Compound 78], the EC50 is at most 5 nM.

Take `C[C@@H](C(=O)N1CCC[C@H]1c1nc2cc(C#Cc3ccc4[nH]c([C@@H]5CCCN5C(=O)[C@H](C)N5CCCC5=O)nc4c3)ccc2[nH]1)N1CCCC1=O` [Compound 79]: the EC50 was at most 5 nM.

`O=C1CCCCCN1CC(=O)N1CCC[C@H]1c1nc2cc(C#Cc3ccc4[nH]c([C@@H]5CCCN5C(=O)CN5CCCCCC5=O)nc4c3)ccc2[nH]1` [Compound 80]: the EC50 was above 5000 nM.

In the case of `CC(C)[C@@H](C(=O)N1CCC[C@H]1c1nc2cc(C#Cc3ccc4[nH]c([C@@H]5CCCN5C(=O)[C@H](C(C)C)N5CCCC5=O)nc4c3)ccc2[nH]1)N1CCCC1=O` [Compound 81], the EC50 was at most 5 nM.

As for `CC(C)[C@@H](NC(=O)O[C@H]1CCOC1)C(=O)N1CCC[C@H]1c1nc2cc(C#Cc3ccc4[nH]c([C@@H]5CCCN5C(=O)[C@H](NC(=O)O[C@H]5CCOC5)C(C)C)nc4c3)ccc2[nH]1` [Compound 82], the EC50 was in the range of 5 to 5000 nM.
